From ChEMBL document CHEMBL2203066 (J Med Chem, 2012)

Columns and labels:
Influenza A virus [1] = assay: Antiviral activity against oseltamivir-resistant Influenza A virus A/Hong Kong/2369/09/H275Y(H1N1) infected in MDCK cells assessed as protection against virus-induced cytopathic effect after 48 to 72 hrs by CellTiter 96 aqueous assay; assay type: functional, organism-based
Influenza A virus [2] = assay: Antiviral activity against oseltamivir-resistant Influenza A virus A/WSN/1933/H275Y (pandemic H1N1) infected in MDCK cells assessed as protection against virus-induced cytopathic effect after 48 to 72 hrs by CellTiter 96 aqueous assay; assay type: functional, organism-based, A/WSN/1933/H275Y(H1N1)

Molecule `CCC(CC)O[C@@H]1C=C(P(=O)(O)O)C[C@H](N)[C@H]1NC(C)=O` [TAMIPHOSPHOR] has an EC50 (Influenza A virus [1]) of 6.55 µM and an EC50 (Influenza A virus [2]) of 7.4 µM.
`CCOP(=O)(O)C1=C[C@@H](OC(CC)CC)[C@H](NC(C)=O)[C@@H](N)C1` [TAMIPHOSPHOR MONOETHYL ESTER] was tested, and the EC50 (Influenza A virus [1]) was 0.44 µM and the EC50 (Influenza A virus [2]) was 0.49 µM.
Molecule `CCC(CC)O[C@@H]1C=C(P(=O)(O)O)C[C@H](NC(=N)N)[C@H]1NC(C)=O` has an EC50 (Influenza A virus [1]) of 4.6 µM and an EC50 (Influenza A virus [2]) of 3.2 µM.
